How the values were obtained:
Entamoeba histolytica [1] = assay: Antiparasitic activity against trophozoite stage of Entamoeba histolytica HM-1:IMSS after 48 hrs by haemocytometric method; type: functional, organism-based
Giardia intestinalis [2] = assay: Antiparasitic activity against trophozoite stage of Giardia intestinalis IMSS:0989:1 after 48 hrs; type: functional, organism-based; conditions: Giardia duodenalis, IMSS:0989:1, 48 h
Trichomonas vaginalis = assay: Antiparasitic activity against trophozoite stage of Trichomonas vaginalis CNCD 147 after 48 hrs; type: functional, organism-based; conditions: CNCD 147, 48 h
Entamoeba histolytica [3] = assay: Antiparasitic activity against trophozoite stage of Entamoeba histolytica HM-1:IMSS after 48 hrs; type: functional, organism-based
Giardia intestinalis [4] = assay: Potency index, ratio of metronidazole IC50 to test compound IC50 for trophozoite stage of Giardia intestinalis IMSS:0989:1; type: functional, Giardia duodenalis
Entamoeba histolytica [5] = assay: Potency index, ratio of metronidazole IC50 to test compound IC50 for trophozoite stage of Entamoeba histolytica HM-1:IMSS; type: functional

Row | Compound | IC50 (Entamoeba histolytica [1]) [nM] | IC50 (Giardia intestinalis [2]) [nM] | IC50 (Trichomonas vaginalis) [nM] | IC50 (Entamoeba histolytica [3]) [nM] | Ratio IC50 (Giardia intestinalis [4]) | Ratio IC50 (Entamoeba histolytica [5])
1 | O=[N+]([O-])c1cc2nc(C(F)(F)F)[nH]c2cc1[N+](=O)[O-] | 1550 | – | – | – | – | –
2 | FC(F)(F)C(F)(F)c1nc2c(Br)c(Br)c(Br)c(Br)c2[nH]1 | 229 | – | – | – | – | –
3 | FC(F)(F)c1nc2c(Br)c(Br)c(Br)cc2[nH]1 | 13800 | – | – | – | – | –
4 | FC(F)(F)c1nc2cc(Br)c(Br)cc2[nH]1 | 437 | – | – | – | – | –
5 | CSc1nc2cc(C(=O)Nc3cccc(C)n3)c(Cl)cc2[nH]1 | – | 135 | 111 | 81.3 | – | –
6 | CSc1nc2cc(C(=O)Nc3ccccn3)c(Cl)cc2n1C | – | 346 | 12 | 34.5 | – | –
7 | CSc1nc2cc(C(=O)Nc3cccc(Cl)c3)c(Cl)cc2[nH]1 | – | 1110 | 162 | 51 | – | –
8 | CSc1nc2cc(C(=O)Nc3cccc(C)c3)c(Cl)cc2[nH]1 | – | 250 | 515 | 120 | – | –
9 | CSc1nc2cc(C(=O)Nc3cccc(Cl)n3)c(Cl)cc2[nH]1 | – | 454 | 128 | 36.9 | – | –

More lines, main results first:

Row | IC50 (Entamoeba histolytica [1]) [nM] | IC50 (Giardia intestinalis [2]) [nM] | IC50 (Trichomonas vaginalis) [nM] | IC50 (Entamoeba histolytica [3]) [nM] | Compound | Ratio IC50 (Giardia intestinalis [4]) | Ratio IC50 (Entamoeba histolytica [5])
10 | – | 15.8 | 28.8 | 41.8 | CSc1nc2cc(C(=O)Nc3cccc(C)n3)c(Cl)cc2n1C | – | –
11 | – | 77 | 67.6 | 44 | CSc1nc2cc(C(=O)Nc3ccccn3)c(Cl)cc2[nH]1 | – | –
12 | – | 7.9 | 41 | 9.2 | CSc1nc2cc(C(=O)Nc3ccc([N+](=O)[O-])cn3)c(Cl)cc2n1C | 155 | 41
13 | – | 72.5 | 120 | 52 | CSc1nc2cc(C(=O)Nc3ccccc3)c(Cl)cc2[nH]1 | – | –
14 | – | 56.6 | 28.3 | 48.5 | CSc1nc2cc(C(=O)NNC(=O)OC(C)(C)C)c(Cl)cc2n1C | – | –
15 | – | 12.2 | 368 | 40.8 | CSc1nc2cc(C(=O)Nc3cccc(Cl)n3)c(Cl)cc2n1C | – | –
16 | – | 29.2 | 13.2 | 26.6 | CSc1nc2cc(C(=O)N/N=C/c3ccc([N+](=O)[O-])o3)c(Cl)cc2n1C | – | –
